# Test results as given in patent EP4385979A1 (Grünenthal GmbH, priority 2022, dated 2024).
# pIC50: −log10 of the molar value.
# Biological target: T1, human NaV1.8 (Homo sapiens, UniProt Q9Y5Y9)
# T1 construct: expressed in transfected cells; host or cells: HEK
# Test: Electrophysiology: voltage-clamp recordings, whole-cell patch clamp on Qube384 automated platform
# Type: cell-based
# Conditions: HEK-NaV1.8 (NM 006514.1) with b3 recombinant cell line, multi hole plates, ambient room temperature, read-out: Potency category (human NaV1.8 IC50)
# Method: Electrophysiology: Voltage-Clamp recordings
# The following NaV1.8 recombinant cell line was used for recordings: HEK-NaV1.8 (NM 006514.1) with b3 (NM_018400.3).
# Sodium currents were measured using the patch clamp technique in the whole-cell configuration using the Qube384 (Sophion A/S, Copenhagen, Denmark) automated voltage clamp platform. "Multi hole" plates were used for the cell line expressing NaV1.8 while "single hole" plates were used for the recombinant cell lines expressing the other subtypes. Appropriate filters (for minimum seal resistance and minimum current size) and series resistance compensation (for high quality sodium channel recordings) were applied. Data was collected at ambient room temperature.
# The recording […] solution contained (in mM): NaCl 145 mM, KCl 4 mM, CaCl2 2 mM, MgCl2 1 mM, HEPES 10 mM, Glucose 10 mM, pH 7.4 (NaOH). The […] recording solution contained (in mM): CsF 120 mM, CsCl 20 mM, NaCl 10 mM, EGTA 10 mM, HEPES 10 mM, pH 7.2 (CsOH). Currents were recorded at 25 kHz sampling frequency and filtered at 5 kHz. Series resistance compensation was applied at 65%.
# Vehicle (VEH) is the control condition where cells are exposed to 0.3 % DMSO without compound. All runs include VEH controls being exposed to the same voltage protocols to assess non-compound related phenomena such as run down and then used to isolate compound dependent effects on currents.
# To check for state-dependence inhibition, the following voltage-sequence was applied every 20 seconds: From a resting membrane potential of-120 mV, the first test pulse (P1; 20 ms to -10 mV) was applied to check for channels in the Resting State followed by a brief recovery (20 ms to -120 mV), then holding the membrane voltage to V1/2 (4 seconds at voltage to obtain half the channel at Rest and half Inactivated) with a subsequent second test pulse (P2; 20 ms to -10 mV) to check for channels in the Inactivated State, followed by another brief recovery (20 ms to -120 mV) and a final third test pulse (P3; 20 ms to -10 mV) to check for recovered channels.
# To check for frequency-dependent inhibition, a 10 Hz protocol and a 20 Hz protocol were applied; namely,
# From a resting membrane potential of -120 mV, 40-pulses (10 ms to -10 mV) was applied at 10 Hz (at 100 ms between pulses) and then at 20 Hz (at 50 ms between pulses). Each parameter was recorded (P1, P2, P3, P40 from 10Hz and P40 from 20Hz) during a control period (lasting ~ 5 minutes) when establishing the baseline and during compound period (lasting ~ 12 minutes) when test compound (or vehicle) was applied. For each parameter, the value at the end of the compound period was normalized to the vehicle baseline; as follows Normalized Inhibition (NormCPD) = (CPD Valueend CPD period)/(VEH Valueend Control Period) [formula]
# To adjust for any variance in the Na^+ current signal during the compound period (owing to cumulative inactivation independent of compound or shifts in biophysics over time), a dedicated segment of the recording wells in each 384 plate were dedicated to having only vehicle exposure. These vehicle-only recordings were used to correct for any apparent "run-up" or "run-down" in the experiment. Normalized Inhibition (NormVEH) = (VEH Valueend CPD period)/(VEH Valueend Control Period) [formula]
# The adjusted inhibition was calculated as follows: % Inhibitioncorrected = 100 × (NormCPD −NormVEH)/(100−NormVEH) [formula]
# Percent inhibition was determined and IC50 values were calculated using a 4 parameter logistic model within XLFit Software (IDBS, Boston MA): % Inhibitioncorrected = A + ((B−A))/((1 + (((x)/(C)))^D) [formula] where A and B are the maximal and minimum inhibition respectively, C is the IC50 concentration and D is the (Hill) slope.
# T1 sequence (Q9Y5Y9 whole entry): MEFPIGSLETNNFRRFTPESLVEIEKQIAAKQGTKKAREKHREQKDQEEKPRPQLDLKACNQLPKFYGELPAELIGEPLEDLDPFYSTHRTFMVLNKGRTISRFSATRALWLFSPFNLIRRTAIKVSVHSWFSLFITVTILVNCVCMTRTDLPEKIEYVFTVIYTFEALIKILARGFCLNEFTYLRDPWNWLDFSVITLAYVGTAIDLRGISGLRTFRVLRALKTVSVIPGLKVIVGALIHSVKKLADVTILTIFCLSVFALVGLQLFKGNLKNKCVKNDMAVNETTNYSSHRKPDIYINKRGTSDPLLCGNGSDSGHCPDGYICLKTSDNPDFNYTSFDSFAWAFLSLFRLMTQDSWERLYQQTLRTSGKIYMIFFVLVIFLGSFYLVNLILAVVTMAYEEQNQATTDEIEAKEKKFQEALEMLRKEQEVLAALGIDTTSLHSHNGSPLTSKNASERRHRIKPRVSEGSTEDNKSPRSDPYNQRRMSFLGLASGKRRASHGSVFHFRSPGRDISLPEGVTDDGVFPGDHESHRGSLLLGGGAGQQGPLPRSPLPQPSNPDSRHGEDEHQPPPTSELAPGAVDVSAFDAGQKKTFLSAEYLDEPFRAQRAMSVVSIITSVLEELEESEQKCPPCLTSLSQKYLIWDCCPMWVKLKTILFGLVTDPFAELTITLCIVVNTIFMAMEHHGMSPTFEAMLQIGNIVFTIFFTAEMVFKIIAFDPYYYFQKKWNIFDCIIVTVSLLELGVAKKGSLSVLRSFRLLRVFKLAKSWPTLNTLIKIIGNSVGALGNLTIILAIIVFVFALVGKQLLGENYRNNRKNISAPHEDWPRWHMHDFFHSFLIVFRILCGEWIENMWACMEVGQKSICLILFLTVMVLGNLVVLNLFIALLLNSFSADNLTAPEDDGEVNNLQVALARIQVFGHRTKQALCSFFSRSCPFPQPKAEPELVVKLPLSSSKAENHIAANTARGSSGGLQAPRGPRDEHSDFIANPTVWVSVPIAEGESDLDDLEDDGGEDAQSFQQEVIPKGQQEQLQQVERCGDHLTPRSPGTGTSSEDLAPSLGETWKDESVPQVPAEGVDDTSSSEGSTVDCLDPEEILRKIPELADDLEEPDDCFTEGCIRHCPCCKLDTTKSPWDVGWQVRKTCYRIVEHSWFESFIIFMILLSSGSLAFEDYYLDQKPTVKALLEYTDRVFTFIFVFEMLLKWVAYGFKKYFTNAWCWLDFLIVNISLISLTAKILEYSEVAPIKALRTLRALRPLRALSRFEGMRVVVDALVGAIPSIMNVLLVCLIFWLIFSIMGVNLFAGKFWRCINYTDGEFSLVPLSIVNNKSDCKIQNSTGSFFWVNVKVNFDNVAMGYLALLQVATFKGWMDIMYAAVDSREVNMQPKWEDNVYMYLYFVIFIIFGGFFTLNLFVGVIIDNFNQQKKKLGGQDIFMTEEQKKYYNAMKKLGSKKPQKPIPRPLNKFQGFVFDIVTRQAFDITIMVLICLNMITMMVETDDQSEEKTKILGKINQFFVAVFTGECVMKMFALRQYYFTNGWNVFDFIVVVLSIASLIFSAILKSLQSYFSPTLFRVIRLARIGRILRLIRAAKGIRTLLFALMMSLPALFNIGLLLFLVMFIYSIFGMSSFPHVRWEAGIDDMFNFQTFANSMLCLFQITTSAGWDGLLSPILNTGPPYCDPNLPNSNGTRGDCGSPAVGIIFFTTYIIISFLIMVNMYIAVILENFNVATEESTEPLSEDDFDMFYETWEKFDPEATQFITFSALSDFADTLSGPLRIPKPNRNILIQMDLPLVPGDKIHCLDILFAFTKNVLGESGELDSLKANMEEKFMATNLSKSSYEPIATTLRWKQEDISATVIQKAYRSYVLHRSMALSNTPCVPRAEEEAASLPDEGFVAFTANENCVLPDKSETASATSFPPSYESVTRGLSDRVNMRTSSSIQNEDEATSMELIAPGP
row,pIC50,Structure (SMILES)
1,≥ 7.00,"Cc1c(C(C)(F)F)nn(CC2(C)CC(F)(F)CC2C)c1C(=O)Nc1ccnc(C(N)=O)c1 (single isomer, unassigned) [Example 10a, 4-(1-((4,4-difluoro-1,2-dimethylcyclopentyl)methyl)-3-(1,1-difluoroethyl)-4-methyl-1H-pyrazole-5-carboxamido)picolinamide]"
2,≥ 7.00,"Cc1c(C(C)(F)F)nn(CC2(C)CC(F)(F)CC2C)c1C(=O)Nc1ccnc(C(N)=O)c1 (single isomer, unassigned) [Example 10b, 4-(1-((4,4-difluoro-1,2-dimethylcyclopentyl)methyl)-3-(1,1-difluoroethyl)-4-methyl-1H-pyrazole-5-carboxamido)picolinamide]"
3,≥ 7.00,"Cc1c(C(C)(F)F)nn(CC2(C)CC(F)(F)CC2C)c1C(=O)Nc1ccnc(C(N)=O)c1 (single isomer, unassigned) [Example 10c, 4-(1-((4,4-difluoro-1,2-dimethylcyclopentyl)methyl)-3-(1,1-difluoroethyl)-4-methyl-1H-pyrazole-5-carboxamido)picolinamide]"
4,≥ 7.00,"Cc1c(C(C)(F)F)nn(CC2(C)CC(F)(F)CC2C)c1C(=O)Nc1ccnc(C(N)=O)c1 (single isomer, unassigned) [Example 10d, 4-(1-((4,4-difluoro-1,2-dimethylcyclopentyl)methyl)-3-(1,1-difluoroethyl)-4-methyl-1H-pyrazole-5-carboxamido)picolinamide]"
5,6.00 to 7.00,"CC1(C)CC(Cn2nc(C3CC3)c(C(F)(F)F)c2C(=O)Nc2ccnc(C(N)=O)c2)O1 (single isomer, unassigned) [Example 17a, 4-(3-cyclopropyl-1-((4,4-dimethyloxetan-2-yl)methyl)-4-(trifluoromethyl)-1H-pyrazole-5-carboxamido)picolinamide]"
6,5.00 to 6.00,"CC1(C)CC(Cn2nc(C3CC3)c(C(F)(F)F)c2C(=O)Nc2ccnc(S(C)(=O)=O)c2)O1 (single isomer, unassigned) [Example 22a, 3-cyclopropyl-1-((4,4-dimethyloxetan-2-yl)methyl)-N-(2-(methylsulfonyl)pyridin-4-yl)-4-(trifluoromethyl)-1H-pyrazole-5-carboxamide]"
7,≥ 7.00,"Cc1c(C(C)(F)F)nn(CC2(C)CC(F)(F)CC2C)c1C(=O)Nc1ccnc(S(N)(=O)=O)c1 (single isomer, unassigned) [Example 43a, 1-((4,4-difluoro-1,2-dimethylcyclopentyl)methyl)-3-(1,1-difluoroethyl)-4-methyl-N-(2-sulfamoylpyridin-4-yl)-1H-pyrazole-5-carboxamide]"
8,≥ 7.00,"Cc1c(C(C)(F)F)nn(CC2(C)CC(F)(F)CC2C)c1C(=O)Nc1ccnc(S(N)(=O)=O)c1 (single isomer, unassigned) [Example 43b, 1-((4,4-difluoro-1,2-dimethylcyclopentyl)methyl)-3-(1,1-difluoroethyl)-4-methyl-N-(2-sulfamoylpyridin-4-yl)-1H-pyrazole-5-carboxamide]"
9,≥ 7.00,"Cc1c(C(C)(F)F)nn(CC2(C)CC(F)(F)CC2C)c1C(=O)Nc1ccnc(S(N)(=O)=O)c1 (single isomer, unassigned) [Example 43c, 1-((4,4-difluoro-1,2-dimethylcyclopentyl)methyl)-3-(1,1-difluoroethyl)-4-methyl-N-(2-sulfamoylpyridin-4-yl)-1H-pyrazole-5-carboxamide]"
10,≥ 7.00,"Cc1c(C(C)(F)F)nn(CC2(C)CC(F)(F)CC2C)c1C(=O)Nc1ccnc(S(N)(=O)=O)c1 (single isomer, unassigned) [Example 43d, 1-((4,4-difluoro-1,2-dimethylcyclopentyl)methyl)-3-(1,1-difluoroethyl)-4-methyl-N-(2-sulfamoylpyridin-4-yl)-1H-pyrazole-5-carboxamide]"
11,6.00 to 7.00,"Cc1nn(CC23CC(F)(C2)C3)c(C(=O)Nc2ccnc(C(N)=O)c2)c1C(F)(F)F [Example 1, 4-(1-((3-fluorobicyclo[1.1.1]pentan-1-yl)methyl)-3-methyl-4-(trifluoromethyl)-1H-pyrazole-5-carboxamido)picolinamide]"
12,≥ 7.00,Cc1c(C(C)(F)F)nn(CC23CC(C(F)(F)F)(C2)C3)c1C(=O)Nc1ccnc(C(N)=O)c1 [Example 4]
13,≥ 7.00,"Cc1c(C(F)(F)F)nn(CC23CC(C(F)(F)F)(C2)C3)c1C(=O)Nc1ccnc(C(N)=O)c1 [Example 8, 4-(4-methyl-3-(trifluoromethyl)-1-((3-(trifluoromethyl)bicyclo [1.1.1]pentan-1-yl)methyl)-1H-pyrazole-5-carboxamido)picolinamide]"
14,≥ 7.00,"NC(=O)c1cc(NC(=O)c2c(C(F)(F)F)c(C3CC3)nn2CC23CC(C(F)(F)F)(C2)C3)ccn1 [Example 9, 4-(3-cyclopropyl-4-(trifluoromethyl)-1-((3-(trifluoromethyl)bicyclo [1.1.1]pentan-1-yl)methyl)-1H-pyrazole-5-carboxamido)picolinamide]"
15,6.00 to 7.00,"COC12CC(Cn3nc(C4CC4)c(C(F)(F)F)c3C(=O)Nc3ccnc(C(N)=O)c3)(C1)C2 [Example 14, 4-(3-cyclopropyl-1-((3-methoxybicyclo[1.1.1]pentan-1-yl)methyl)-4-(trifluoromethyl)-1H-pyrazole-5-carboxamido)picolinamide]"
16,≥ 7.00,"NC(=O)c1cc(NC(=O)c2c(C(F)(F)F)c(C3CC3)nn2CC23CC(F)(C2)C3)ccn1 [Example 15, 4-(3-cyclopropyl-1-((3-fluorobicyclo [1.1.1]pentan-1-yl)methyl)-4-(trifluoromethyl)-1H-pyrazole-5-carboxamido)picolinamide]"
17,≥ 7.00,"CC12COC(Cn3nc(C4CC4)c(C(F)(F)F)c3C(=O)Nc3ccnc(C(N)=O)c3)(C1)C2 [Example 16, 4-(3-cyclopropyl-1-((4-methyl-2-oxabicyclo[2.1.1]hexan-1-yl)methyl)-4-(trifluoromethyl)-1H-pyrazole-5-carboxamido)picolinamide]"
18,≥ 7.00,"Cc1nn(CC23CC(C(F)(F)F)(C2)C3)c(C(=O)Nc2ccnc(C(N)=O)c2)c1C(F)(F)F [Example 18, 4-(3-methyl-4-(trifluoromethyl)-1-((3-(trifluoromethyl)bicyclo [1.1.1]pentan-1-yl)methyl)-1H-pyrazole-5-carboxamido)picolinamide]"
19,6.00 to 7.00,"CC12COC(Cn3nc(C4CC4)c(C(F)(F)F)c3C(=O)Nc3ccnc(S(C)(=O)=O)c3)(C1)C2 [Example 19, 3-cyclopropyl-1-((4-methyl-2-oxabicyclo[2.1.1]hexan-1-yl)methyl)-N-(2-(methylsulfonyl)pyridin-4-yl)-4-(trifluoromethyl)-1H-pyrazole-5-carboxamide]"
20,≥ 7.00,"CS(=O)(=O)c1cc(NC(=O)c2c(C(F)(F)F)c(C3CC3)nn2CC23CC(F)(C2)C3)ccn1 [Example 21, 3-cyclopropyl-1-((3-fluorobicyclo [1.1.1]pentan-1-yl)methyl)-N-(2-(methylsulfonyl)pyridin-4-yl)-4-(trifluoromethyl)-1H-pyrazole-5-carboxamide]"

row,Structure (SMILES),pIC50
1,"Cc1c(C(C)(F)F)nn(CC23CC(F)(C2)C3)c1C(=O)Nc1ccnc(C(N)=O)c1 [Example 2, 4-(3-(1,1-difluoroethyl)-1-((3-fluorobicyclo [1.1.1]pentan-1-yl)methyl)-4-methyl-1H-pyrazole-5-carboxamido)picolinamide]",6.00 to 7.00
2,NC(=O)c1cc(NC(=O)c2c(C(F)(F)F)c(C3CC3)nn2CC23CC(CO2)C3)ccn1 [Example 3],6.00 to 7.00
3,COC12CC(Cn3nc(C4CC4)c(C(F)(F)F)c3C(=O)Nc3ccnc(S(C)(=O)=O)c3)(C1)C2 [Example 20],6.00 to 7.00
